Data taken from ChEMBL document CHEMBL5506009 (Eur J Med Chem, 2024).

Tested on: not listed separately
Assay: Inhibition of wild type influenza A virus H5N1 A/Anhui/1/2005 Neuraminidase using MUNANA as substrate
Settings: not given

First: O=C(CSc1nnc(COc2ccc3ccccc3c2)o1)NCc1ccc(Cl)c(Cl)c1
Second: O=C(CSc1nnc(COc2ccc3ccccc3c2)o1)NCc1ccc(F)cc1
The IC50 of the first is 6.1-fold higher: 0.86 µM for the first, 0.14 µM for the second. The second is the more potent here.

First: COc1cc(NC(=O)CSc2nnc(-c3ccc4ncccc4c3)o2)cc(OC)c1OC
Second: COc1ccc(CCNC(=O)CSc2nnc(-c3ccc4ncccc4c3)o2)cc1OC
The IC50 of the first is 3.9-fold higher: 10.4 µM for the first, 2.65 µM for the second. The second is the more potent here.

Going from `O=C(CSc1nnc(-c2ccc3ncccc3c2)o1)NCCc1ccc2c(c1)OCO2` to `O=C(CSc1nnc(-c2ccc3ncccc3c2)o1)NCCc1cccc(F)c1`, the IC50 falls from 81 µM to 10.7 µM (7.6-fold). The second is the more potent here.

First: CCC(CC)O[C@@H]1C=C(C(=O)O)C[C@H](N)[C@H]1NC(C)=O [OSELTAMIVIR CARBOXYLATE]
Second: COc1cc(NC(=O)CSc2nnc(COc3ccc4ccccc4c3)o2)cc(OC)c1OC
The IC50 of the first is 140-fold lower: 0.31 µM for the first, 43.8 µM for the second.

`COc1cccc(CCNC(=O)CSc2nnc(-c3ccc4ncccc4c3)o2)c1` and `O=C(CSc1nnc(-c2ccc3ncccc3c2)o1)NCc1ccc(F)cc1` are within 1.5-fold of each other in IC50: 2.51 µM for the first, 1.75 µM for the second.

Going from `COc1cccc(CCNC(=O)CSc2nnc(COc3ccc4ccccc4c3)o2)c1` to `O=C(CSc1nnc(COc2ccc3ccccc3c2)o1)NCCc1cccc(F)c1`, the IC50 falls from 2.84 µM to 1.16 µM (2.4-fold). The second is the more potent here.

Going from `COc1ccc(CCNC(=O)CSc2nnc(COc3ccc4ccccc4c3)o2)cc1OC` to `O=C(CSc1nnc(COc2ccc3ccccc3c2)o1)NCCc1ccc2c(c1)OCO2`, the IC50 rises from 2.82 µM to 25.6 µM (9.1-fold). The first is the more potent here.

Compared with `O=C(CSc1nnc(-c2ccc3ncccc3c2)o1)NCc1ccc(Cl)c(Cl)c1`, `O=C(CSc1nnc(-c2ccc3ncccc3c2)o1)Nc1ccc(C(F)(F)F)cn1` is 4.2-fold higher in IC50: 0.47 µM for the first, 1.96 µM for the second.

Going from `Cc1cc([N+](=O)[O-])ccc1NC(=O)CSc1nnc(COc2ccc3ccccc3c2)o1` to `O=C(CSc1nnc(COc2ccc3ccccc3c2)o1)Nc1ccc(C(F)(F)F)cn1`, the IC50 rises from 1.35 µM to 22.7 µM (17-fold). The first is the more potent here.

Tested on: Influenza A virus
Assay: microbe, parasite or virus in culture
Settings: H5N1

Compared with `O=C(CSc1nnc(COc2ccc3ccccc3c2)o1)NCc1ccc(F)cc1`, `O=C(CSc1nnc(-c2ccc3ncccc3c2)o1)NCc1ccc(Cl)c(Cl)c1` is 34-fold lower in EC50: 3.7 µM for the first, 0.11 µM for the second.

For `CCC(CC)O[C@@H]1C=C(C(=O)O)C[C@H](N)[C@H]1NC(C)=O` [OSELTAMIVIR CARBOXYLATE], the EC50 was 1.47 µM.
